From patent publication US9458092B2, “α-Substituted glycinamide derivative” (KISSEI PHARMACEUTICAL CO., LTD., priority 2013, dated 2016)

target: TRPM8 (Rattus norvegicus, UniProt Q8R455); assay: Confirmation test of inhibitory effects on icilin-induced wet-dog shakes; type: in vivo, female SD rats; set-up: test compounds were orally administered to female SD rats; from tissue; host or cells: whole animal (female SD rats), endogenous channel; conditions: dose 3 mg/kg orally, icilin 1 mg/kg i.p. after 1 hour, shakes counted for 5 minutes
Protocol: Test compounds were dissolved in dimethylacetamide (wako), and 0.5% methylcellulose solution (wako) was added to make the solution or suspension containing 5% of dimethylacetamide. At a dose of 3 or 10 mg/kg/5 mL of test compounds were orally administered to female SD rats. After 1 hour, wet-dog shakes were induced by the intrapenitoneal injection of icilin (1 mg/kg) which was dissolved in polyethylene glycol 400 (wako). From 5 minutes after the administration of icilin, wet-dog shakes were counted for 5 minutes. For control example, vehicle (a mixture of dimethylacetamide (wako): 0.5% methylcellulose (wako)=5:95) was administrated similarly, and the number of wet-dog shakes was counted in the same manner. A percent inhibition of wet-dog shakes by test compound was calculated from the following formula: [1-(test compound wet-dog shake count/vehicle wet-dog shake count)]×100.

Chain of TRPM8 (Q8R455 whole entry): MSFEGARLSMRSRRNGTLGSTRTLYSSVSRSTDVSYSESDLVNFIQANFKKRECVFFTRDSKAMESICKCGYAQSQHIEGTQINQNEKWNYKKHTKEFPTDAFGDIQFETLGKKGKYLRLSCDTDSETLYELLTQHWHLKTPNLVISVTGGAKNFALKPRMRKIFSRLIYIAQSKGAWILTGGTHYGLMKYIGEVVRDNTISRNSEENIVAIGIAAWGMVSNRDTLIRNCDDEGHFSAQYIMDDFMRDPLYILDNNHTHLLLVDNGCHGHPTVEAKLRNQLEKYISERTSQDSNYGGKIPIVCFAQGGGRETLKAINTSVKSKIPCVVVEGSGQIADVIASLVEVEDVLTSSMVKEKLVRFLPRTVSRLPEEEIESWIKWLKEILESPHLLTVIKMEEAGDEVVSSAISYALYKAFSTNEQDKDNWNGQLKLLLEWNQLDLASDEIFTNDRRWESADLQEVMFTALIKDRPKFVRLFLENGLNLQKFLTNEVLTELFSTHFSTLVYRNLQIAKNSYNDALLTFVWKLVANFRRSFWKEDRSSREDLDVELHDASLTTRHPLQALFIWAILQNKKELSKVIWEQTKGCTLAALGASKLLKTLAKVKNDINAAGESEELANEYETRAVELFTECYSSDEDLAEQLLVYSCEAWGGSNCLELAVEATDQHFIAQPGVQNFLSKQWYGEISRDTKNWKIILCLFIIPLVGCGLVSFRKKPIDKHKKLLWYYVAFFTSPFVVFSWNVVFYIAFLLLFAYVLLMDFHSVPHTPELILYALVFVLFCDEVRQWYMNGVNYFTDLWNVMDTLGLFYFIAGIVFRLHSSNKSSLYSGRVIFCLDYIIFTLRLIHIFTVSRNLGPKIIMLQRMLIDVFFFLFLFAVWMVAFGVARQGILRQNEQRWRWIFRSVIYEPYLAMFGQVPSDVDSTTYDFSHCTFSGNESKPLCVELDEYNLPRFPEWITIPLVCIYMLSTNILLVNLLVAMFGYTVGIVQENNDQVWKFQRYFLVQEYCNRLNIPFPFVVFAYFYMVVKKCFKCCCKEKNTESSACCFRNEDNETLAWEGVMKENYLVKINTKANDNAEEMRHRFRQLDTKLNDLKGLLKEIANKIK

% inhibition of Wet-Dog Shake [%]	Compound
99	NC(=O)[C@@H](c1ccccc1)N(C(=O)c1cccc2c1OCO2)[C@@H]1CCc2c(F)cc(Cl)cc21 [Example 2-173LP, N-[(R)-carbamoylphenylmethyl]-N-[(R)-6-chloro-4-fluoroindan-1-yl]benzo[1,3]dioxole-4-carboxamide]
40	Cc1nccnc1C(=O)N([C@@H]1CCc2c(F)cc(Cl)cc21)[C@@H](C(N)=O)c1ccccc1 [Example 2-175LP, N-[(R)-carbamoylphenylmethyl]-N-[(R)-6-chloro-4-fluoroindan-1-yl]-3-methylpyrazine-2-carboxamide]
36	Cc1cccc(C(=O)N([C@@H]2CCc3c(F)cc(Cl)cc32)[C@@H](C(N)=O)c2ccccc2)c1O [Example 4-9, N-[(R)-carbamoylphenylmethyl]-N-[(R)-6-chloro-4-fluoroindan-1-yl]-2-hydroxy-3-methylbenzamide]
31	NC(=O)[C@@H](c1ccccc1)N(C(=O)c1ccccc1)[C@@H]1COc2c(F)cc(Cl)cc21 (racemic) [Example 2-252M, N-[(RS)-carbamoylphenylmethyl]-N-[(SR)-5-chloro-7-fluoro-2,3-dihydrobenzofuran-3-yl]benzamide]
32	COc1ncccc1C(=O)N([C@@H]1CCc2c(F)cc(Cl)cc21)[C@@H](C(N)=O)c1cccnc1 [Example 2-180LP, N-[(R)-carbamoylpyridin-3-ylmethyl]-N-[(R)-6-chloro-4-fluoroindan-1-yl]-2-methoxynicotinamide]
32	NC(=O)[C@@H](c1ccccc1)N(C(=O)c1cnccn1)[C@@H]1CCc2c(F)cc(Cl)cc21 [Example 2-179LP, N-[(R)-carbamoylphenylmethyl]-N-[(R)-6-chloro-4-fluoroindan-1-yl]pyrazine-2-carboxamide]
76	NC(=O)[C@@H](c1cccnc1)N(C(=O)c1ccccc1O)[C@@H]1CCc2c(F)cc(Cl)cc21 [Example 4-5, N-[(R)-carbamoylpyridin-3-ylmethyl]-N-[(R)-6-chloro-4-fluoroindan-1-yl]-2-hydroxybenzamide]
71	NC(=O)[C@@H](c1cncc(F)c1)N(C(=O)c1ccccc1O)[C@@H]1CCc2c(F)cc(Cl)cc21 [Example 19-31LP, N-[(R)-Carbamoyl(5-fluoropyridin-3-yl)methyl]-N-[(R)-6-chloro-4-fluoroindan-1-yl]-2-hydroxybenzamide]

Second part, the compound before the results:

Compound	% inhibition of Wet-Dog Shake [%]
NC(=O)[C@@H](c1cccnc1)N(C(=O)c1cccc2c1OCO2)[C@@H]1CCc2c(F)cc(Cl)cc21 [Example 2-172LP, N-[(R)-carbamoylpyridin-3-ylmethyl]-N-[(R)-6-chloro-4-fluoroindan-1-yl]benzo[1,3]dioxole-4-carboxamide]	43
COc1ccccc1C(=O)N([C@@H]1CCc2c(F)cc(Cl)cc21)[C@@H](C(N)=O)c1cccnc1 [Example 2-118LP, N-[(R)-carbamoylpyridin-3-ylmethyl]-N-[(R)-6-chloro-4-fluoroindan-1-yl]-2-methoxybenzamide]	62
NC(=O)[C@@H](c1cccnc1)N(C(=O)c1ccccc1)[C@@H]1CCc2ccc(Cl)cc21 [Example 2-87LP, N-[(R)-carbamoylpyridin-3-ylmethyl]-N-[(R)-6-chloroindan-1-yl]benzamide]	36
Cc1ncccc1C(=O)N([C@@H]1CCc2c(F)cc(Cl)cc21)[C@@H](C(N)=O)c1cccc(O)c1 [Example 2-168LP, N-[(R)-carbamoyl-(3-hydroxyphenyl)methyl]-N-[(R)-6-chloro-4-fluoroindan-1-yl]-2-methylnicotinamide]	36
Cc1cnccc1C(=O)N([C@@H]1CCc2c(F)cc(Cl)cc21)[C@@H](C(N)=O)c1ccccc1 [Example 2-167LP, N-[(R)-carbamoylphenylmethyl]-N-[(R)-6-chloro-4-fluoroindan-1-yl]-3-methylisonicotinamide]	64
Cc1ncsc1C(=O)N([C@@H]1CCc2c(F)cc(F)cc21)[C@@H](C(N)=O)c1ccccc1 [Example 2-132LP, N-[(R)-carbamoylphenylmethyl]-N-[(R)-4,6-difluoroindan-1-yl]-4-methylthiazole-5-carboxamide]	49
Cc1ncncc1C(=O)N([C@@H]1CCc2c(F)cc(Cl)cc21)[C@@H](C(N)=O)c1ccccc1 [Example 2-154LP, N-[(R)-carbamoylphenylmethyl]-N-[(R)-6-chloro-4-fluoroindan-1-yl]-4-methylpyrimidine-5-carboxamide]	36
NC(=O)[C@@H](c1ccccc1)N(C(=O)c1cccnc1Cl)[C@@H]1CCc2c(F)cc(Cl)cc21 [Example 2-93LP, N-[(R)-carbamoylphenylmethyl]-2-chloro-N-[(R)-6-chloro-4-fluoroindan-1-yl]nicotinamide]	100
CSc1ncccc1C(=O)N([C@@H]1CCc2ccc(Cl)cc21)[C@@H](C(N)=O)c1ccccc1 [Example 2-125LP, N-[(R)-carbamoylphenylmethyl]-N-[(R)-6-chloroindan-1-yl]-2-(methylsulfanyl)nicotinamide]	37
CSc1ncccc1C(=O)N([C@@H]1CCc2c(F)cc(Cl)cc21)[C@@H](C(N)=O)c1ccccc1 [Example 2-128LP, N-[(R)-carbamoylphenylmethyl]-N-[(R)-6-chloro-4-fluoroindan-1-yl]-2-(methylsulfanyl)nicotinamide]	65
Cc1ncsc1C(=O)N([C@@H]1CCc2ccc(Cl)cc21)[C@@H](C(N)=O)c1ccccc1 [Example 2-88LP, N-[(R)-carbamoylphenylmethyl]-N-[(R)-6-chloroindan-1-yl]-4-methylthiazole-5-carboxamide]	46
Cc1ncccc1C(=O)N([C@@H]1CCc2c(F)cc(Cl)cc21)[C@@H](C(N)=O)c1cccc(F)c1 [Example 2-161LP, N-[(R)-carbamoyl-(3-fluorophenyl)methyl]-N-[(R)-6-chloro-4-fluoroindan-1-yl]-2-methylnicotinamide]	42

same assay, conditions: dose 10 mg/kg orally, icilin 1 mg/kg i.p. after 1 hour, shakes counted for 5 minutes

% inhibition of Wet-Dog Shake [%]	Compound
99	Cc1ncccc1C(=O)N([C@@H]1CCc2c(F)cc(Cl)cc21)[C@@H](C(N)=O)c1cccc(N)c1 [Example 21-1, N-[(R)-(3-Aminophenyl)carbamoylmethyl]-N-[(R)-6-chloro-4-fluoroindan-1-yl]-2-methylnicotinamide]
63	NC(=O)[C@@H](c1cccnc1)N(C(=O)c1ccc(F)cc1O)[C@@H]1CCc2c(F)cc(Cl)cc21 [Example 19-16LP, N-[(R)-carbamoylpyridin-3-ylmethyl]-N-[(R)-6-chloro-4-fluoroindan-1-yl]-4-fluoro-2-hydroxybenzamide]
99	CN(C)c1cccc([C@H](C(N)=O)N(C(=O)c2ccccc2O)[C@@H]2CCc3c(F)cc(Cl)cc32)c1 [Example 19-6LP, N-[(R)-carbamoyl-(3-dimethylaminophenyl)methyl]-N-[(R)-6-chloro-4-fluoroindan-1-yl]-2-hydroxybenzamide]
94	NC(=O)[C@@H](c1cccc(N)c1)N(C(=O)c1ccccc1O)[C@@H]1CCc2c(F)cc(Cl)cc21 [Example 21-2, N-[(R)-(3-Aminophenyl)carbamoylmethyl]-N-[(R)-6-chloro-4-fluoroindan-1-yl]-2-hydroxybenzamide]
82	Cc1ccc(C(=O)N([C@@H]2CCc3c(F)cc(Cl)cc32)[C@@H](C(N)=O)c2cccnc2)c(O)c1 [Example 19-12LP, N-[(R)-carbamoylpyridin-3-ylmethyl]-N-[(R)-6-chloro-4-fluoroindan-1-yl]-2-hydroxy-4-methylbenzamide]
86	NC(=O)[C@@H](c1cccnc1)N(C(=O)c1cccc(F)c1O)[C@@H]1CCc2c(F)cc(Cl)cc21 [Example 19-25LP, N-[(R)-carbamoylpyridin-3-ylmethyl]-N-[(R)-6-chloro-4-fluoroindan-1-yl]-3-fluoro-2-hydroxybenzamide]

Second part, the compound before the results:

Compound	% inhibition of Wet-Dog Shake [%]
Cc1cc(F)c2c(c1)[C@H](N(C(=O)c1cccnc1)[C@@H](C(N)=O)c1ccccc1)CC2 [Example 2-40LP, N-[(R)-carbamoylphenylmethyl]-N-[(R)-4-fluoro-6-methylindan-1-yl]nicotinamide]	95
COc1cc(F)c2c(c1)[C@H](N(C(=O)c1cccnc1)[C@@H](C(N)=O)c1ccccc1)CC2 [Example 2-39LP, N-[(R)-carbamoylphenylmethyl]-N-[(R)-4-fluoro-6-methoxyindan-1-yl]nicotinamide]	98
NC(=O)[C@@H](c1ccccc1)N(C(=O)c1ccccc1)[C@@H]1CCc2ccc(OC(F)F)cc21 [Example 2-11LP, N-[(R)-carbamoylphenylmethyl]-N-[(R)-6-difluoromethoxyindan-1-yl]benzamide]	85
NC(=O)[C@@H](c1ccccc1)N(C(=O)c1cccnc1)[C@@H]1CCc2c(F)cccc21 [Example 2-56LP, N-[(R)-carbamoylphenylmethyl]-N-[(R)-4-fluoroindan-1-yl]nicotinamide]	50
NC(=O)[C@@H](c1ccccc1)N(C(=O)c1cncs1)[C@@H]1CCc2ccc(Cl)cc21 [Example 2-71LP, N-[(R)-carbamoylphenylmethyl]-N-[(R)-6-chloroindan-1-yl]thiazole-5-carboxamide]	83
